In publication PMC11887051, “Discovery of ONO-2920632 (VU6011887): A Highly Selective and CNS Penetrant TREK-2 (TWIK-Related K+ Channel 2) Preferring Activator In Vivo Tool Compound” (ACS Chemical Neuroscience, 2025):
“Also recorded” adds a separate entry of the source.

Experiments:
TREK-2 = molecular target: T1, TREK-2 (Homo sapiens, UniProt P57789); assay: manual patch clamp (MPC) assay, TREK-2, species not stated; format: cell-based
T1 sequence (P57789 1-538): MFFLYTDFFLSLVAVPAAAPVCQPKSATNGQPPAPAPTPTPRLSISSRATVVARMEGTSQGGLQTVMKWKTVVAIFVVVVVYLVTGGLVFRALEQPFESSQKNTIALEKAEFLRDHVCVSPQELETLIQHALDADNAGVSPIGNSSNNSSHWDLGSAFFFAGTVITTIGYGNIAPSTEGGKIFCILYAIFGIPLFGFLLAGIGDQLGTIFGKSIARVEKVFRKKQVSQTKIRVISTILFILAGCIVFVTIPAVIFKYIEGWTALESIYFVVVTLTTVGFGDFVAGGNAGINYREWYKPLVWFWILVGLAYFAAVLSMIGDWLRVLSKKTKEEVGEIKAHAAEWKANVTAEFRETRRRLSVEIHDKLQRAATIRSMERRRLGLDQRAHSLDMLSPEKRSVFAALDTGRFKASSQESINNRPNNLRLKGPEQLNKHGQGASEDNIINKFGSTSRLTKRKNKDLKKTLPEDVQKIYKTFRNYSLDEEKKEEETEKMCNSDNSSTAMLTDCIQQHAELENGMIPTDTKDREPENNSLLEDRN

[1] = molecular target: Transporter, Norepinephrine (NET) (Homo sapiens, UniProt P23975); assay: Eurofins Lead Profiling radioligand binding; conditions: title: 30 μM
Chain of Transporter, Norepinephrine (NET) (P23975 whole entry): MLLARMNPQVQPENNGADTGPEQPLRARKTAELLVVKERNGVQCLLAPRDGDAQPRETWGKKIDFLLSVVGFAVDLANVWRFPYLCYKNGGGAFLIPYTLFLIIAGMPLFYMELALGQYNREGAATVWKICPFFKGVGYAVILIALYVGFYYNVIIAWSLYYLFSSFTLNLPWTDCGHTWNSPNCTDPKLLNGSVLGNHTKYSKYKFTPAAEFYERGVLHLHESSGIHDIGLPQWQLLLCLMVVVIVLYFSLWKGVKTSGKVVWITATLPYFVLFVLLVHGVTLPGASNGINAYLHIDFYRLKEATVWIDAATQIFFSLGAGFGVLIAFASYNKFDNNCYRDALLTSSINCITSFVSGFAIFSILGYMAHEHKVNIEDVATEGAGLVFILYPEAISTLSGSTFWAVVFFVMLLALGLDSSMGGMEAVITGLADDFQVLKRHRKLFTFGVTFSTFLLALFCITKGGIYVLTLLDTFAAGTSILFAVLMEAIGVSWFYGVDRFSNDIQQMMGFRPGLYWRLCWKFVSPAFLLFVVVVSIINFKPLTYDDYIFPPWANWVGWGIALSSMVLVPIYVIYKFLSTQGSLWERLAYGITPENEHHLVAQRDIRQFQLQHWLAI

Adrenergic α1A = Adrenergic α1A (Rattus norvegicus, UniProt P43140); assay: Eurofins Lead Profiling radioligand binding; conditions: title: 30 μM
Chain of Adrenergic α1A (P43140 whole entry): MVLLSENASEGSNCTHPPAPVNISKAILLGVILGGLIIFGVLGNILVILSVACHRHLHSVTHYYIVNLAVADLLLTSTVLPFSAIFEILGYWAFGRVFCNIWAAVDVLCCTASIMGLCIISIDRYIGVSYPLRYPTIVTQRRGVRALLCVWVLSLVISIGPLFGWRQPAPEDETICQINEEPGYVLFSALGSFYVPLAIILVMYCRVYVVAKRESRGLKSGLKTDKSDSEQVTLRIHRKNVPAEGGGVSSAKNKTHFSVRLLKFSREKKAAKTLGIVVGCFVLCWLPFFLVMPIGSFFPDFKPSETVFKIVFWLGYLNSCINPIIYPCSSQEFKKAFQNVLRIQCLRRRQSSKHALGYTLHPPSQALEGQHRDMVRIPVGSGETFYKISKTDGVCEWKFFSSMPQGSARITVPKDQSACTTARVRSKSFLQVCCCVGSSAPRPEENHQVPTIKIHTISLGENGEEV

Serotonin (5-HT1A) = Serotonin (5-HT1A) (Homo sapiens, UniProt P08908); assay: Eurofins Lead Profiling radioligand binding; conditions: title: 30 μM
Chain of Serotonin (5-HT1A) (P08908 whole entry): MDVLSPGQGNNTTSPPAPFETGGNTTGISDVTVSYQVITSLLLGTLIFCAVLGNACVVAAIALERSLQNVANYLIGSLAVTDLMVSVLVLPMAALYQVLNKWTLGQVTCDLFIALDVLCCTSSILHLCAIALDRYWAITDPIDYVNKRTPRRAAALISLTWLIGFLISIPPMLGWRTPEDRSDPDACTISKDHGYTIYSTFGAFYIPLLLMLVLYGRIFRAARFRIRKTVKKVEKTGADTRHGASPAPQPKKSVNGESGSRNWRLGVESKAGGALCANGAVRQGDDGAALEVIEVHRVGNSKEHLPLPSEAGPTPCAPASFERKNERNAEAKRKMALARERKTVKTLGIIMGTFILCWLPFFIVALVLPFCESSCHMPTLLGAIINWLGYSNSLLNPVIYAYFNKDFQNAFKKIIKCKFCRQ

ICR male mice = assay: acetic acid writhing assay; format: in vivo; conditions: mouse, 0.3, 1, 3 mg/kg PO, 2 h before acetic acid IP, writhes counted 30 min
Procedure: To initially explore the role of TREK-2 activation in analgesia, we evaluated 19b in the acetic acid writhing assay. Injection of acetic acid activates nociceptors directly and/or produces inflamed viscera (subdiaphragmatic organs) and subcutaneous (muscle wall) tissues. The number of writhes (characterized by contraction of the abdominal musculature and extension of the limbs) was then counted for 30 min. Analgesic effect was determined by comparing the number of writhes between in the presence of 19b or vehicle. […] At the 3 mg/kg PO dose of 19b, total brain levels are ∼3 μM and free brain in 0.92 μM and CSF levels in 0.22 μM, providing a good PK/PD relationship and supporting the data generated with the TREK activator 3.
Figure 4 Analgesic effect in acetic acid writhing assay. ICR male mice (6 weeks of age) were pretreated with vehicle (0.5 w/v% Methyl Cellulose in distilled water, PO) or 19b (= ONO-2920632) (0.3, 1, 3 mg/kg, PO) or Indomethacin (10 mg/kg, PO). […] The number of writhes (characterized by contraction of the abdominal musculature and extension of the limbs) was then counted for 30 min. Analgesic effect was determined by comparing the number of writhes between in the presence of compound and in the presence of vehicle (*; p < 0.05 by Student’s t test, #; p < 0.05 by Williams test).

[2] = molecular target: Leukotriene, Cysteinyl CysLT1 (Homo sapiens, UniProt Q9Y271); assay: Eurofins Lead Profiling radioligand binding; conditions: title: 30 μM
Chain of Leukotriene, Cysteinyl CysLT1 (Q9Y271 whole entry): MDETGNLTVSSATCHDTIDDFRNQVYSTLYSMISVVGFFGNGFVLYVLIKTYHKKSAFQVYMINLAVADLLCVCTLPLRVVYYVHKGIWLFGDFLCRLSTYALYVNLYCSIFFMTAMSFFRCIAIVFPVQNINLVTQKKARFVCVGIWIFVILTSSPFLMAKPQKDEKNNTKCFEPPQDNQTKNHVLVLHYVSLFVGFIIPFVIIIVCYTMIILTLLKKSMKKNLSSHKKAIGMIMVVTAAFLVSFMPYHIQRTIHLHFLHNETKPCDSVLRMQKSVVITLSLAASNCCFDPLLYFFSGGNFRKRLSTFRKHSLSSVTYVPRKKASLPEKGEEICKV

dog IV PK study = format: in vivo; conditions: male, beagle, plasma, 0.1 mg/kg IV, HP-β-CD solution
Procedure: Plasma and brain tissue samples originating from in vivo studies were analyzed by electrospray ionization using an AB Sciex Q-TRAP 5500 (Foster City, CA) that was coupled to a Shimadzu LC-20AD pump (Columbia, MD) and a Leap Technologies CTC PAL auto-sampler (Carrboro, NC). Analytes were separated by gradient elution using a C18 column (3 x 50 mm, 3 mm; Fortis Technologies Ltd, Cheshire, UK) that was thermostated at 40 °C. HPLC mobile phase A was 0.1% formic acid in water (pH unadjusted); mobile phase B was 0.1% formic acid in acetonitrile (pH […]
min, with an isocratic hold for 0.5 min, before transitioning to 10% B over 0.05 min. The column was re-equilibrated (1 min) before the next sample injection. The total run time was 2.55 min, and the HPLC flow rate was 0.5 ml/min. The source temperature was set at 500 °C, and mass spectral analyses were performed using a Turbo-Ion spray source in positive ionization mode (5.0-kV spray voltage) and using multiple-reaction monitoring of transitions specific for the analytes. All data were analyzed using AB Sciex Analyst 1.5.1 software. […]
For determination of the plasma concentration-time profile, compounds were formulated in methyl cellulose and administered as a 3 mg/kg PO dose to male C57BL/6 mouse or SD rat (n = 2). For the same determination, compounds were formulated in HP-β-CD and administered as a 0.1 mg/kg IV dose to male beagle dog (n = 2).
Plasma samples originating from in vivo studies were analyzed by electrospray ionization using a Q-TRAP 5500 (AB Sciex) that was coupled to a Prominence UFLC XR (Shimadzu Corporation).
Analytes were separated by gradient elution using a Shim-pack XR-ODS II (2 x 75 mm, 2.2μm, Shimadzu Corporation) that was thermostated at 40 °C. HPLC mobile phase A was 5 mM ammonium acetate containing 0.2% formic acid in water (pH unadjusted); mobile phase B was […]
hold for 1.5 min, before transitioning to 10% B over 0.1 min. The column was re-equilibrated (0.9 min) before the next sample injection. The total run time was 4.0 min, and the HPLC flow rate was 0.5 ml/min. […]

selectivity for TREK-2 in MPC assay (TREK-2; TREK-2 over TREK-1, manual patch clamp) [fold] | EC50 (TREK-2; manual patch clamp) [nM] | Emax (TREK-2; manual patch clamp) [%] | SMILES | inhibition [1] [%] | inhibition (Adrenergic α1A) [%] | inhibition (Serotonin (5-HT1A)) [%] | analgesic effect (number of writhes) (ICR male mice) | analgesic effect (number of writhes) (ICR male mice; listed as ONO-2920632) | inhibition [2] [%] | half-life (dog IV PK study) [h] | clearance (dog IV PK study; read-out: CLp) [mL/min/kg] | Vd (dog IV PK study; read-out: Vss) [L/kg]
~8 | 950 | 126 | CS(=O)(=O)Nc1ccc(C(=O)NCc2ccc(Cl)cc2Cl)cc1 [Compound 13] |  |  |  |  |  |  |  |  | 
 |  |  | O=C(NCc1ccc(OC(F)(F)F)cc1F)c1ccc2ncnn2c1 [Compound 19b] | 29 | 2 | 2 | dose-dependently reduces the number of writhes; also recorded: analgesic efficacy at 3 mg/kg PO of comparable magnitude to the positive control indomethacin | robust, dose dependent efficacy | 5 | 22 | 1.3 | 2.2
